Test system: PC-3 multi-cell spheroids, viability
Assay: Anticancer human tumor PC-3 cell line growth inhibition [IpAb];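 further: spheroids exposed to compounds for 7 days before readout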;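 on viability, T/C: 100% = DMSO vehicle control wells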
Details: for IC50: curve of first compound; for viability, T/C: stronger effect = lower value
How it was run: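 Combinations with ipatasertib or abemaciclib were tested on tumour spheroids holding HUVEC (25%) and MSC (15%) alongside 60% malignant cells. Top concentration was at or near clinical Cmax (10 microM if undefined), descending in half-log steps.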

[1] = second compound 0.01 µM, first compound 0.00949 µM
[2] = second compound 0.01 µM, first compound 0.03 µM
[3] = second compound 0.01 µM, first compound 0.0949 µM
[4] = second compound 0.01 µM, first compound 0.3 µM
[5] = second compound 0.0316 µM, first compound 0.00949 µM
[6] = second compound 0.0316 µM, first compound 0.03 µM
[7] = second compound 0.0316 µM, first compound 0.0949 µM
[8] = second compound 0.0316 µM, first compound 0.3 µM
[9] = second compound 0.1 µM, first compound 0.00949 µM
[10] = second compound 0.1 µM, first compound 0.03 µM
[11] = second compound 0.1 µM, first compound 0.0949 µM
[12] = second compound 0.1 µM, first compound 0.3 µM
[13] = second compound 0.316 µM, first compound 0.00949 µM
[14] = second compound 0.316 µM, first compound 0.03 µM
[15] = second compound 0.316 µM, first compound 0.0949 µM
[16] = second compound 0.316 µM, first compound 0.3 µM
[17] = second compound 1 µM, first compound 0.00949 µM
[18] = second compound 1 µM, first compound 0.03 µM
[19] = second compound 1 µM, first compound 0.0949 µM
[20] = second compound 1 µM, first compound 0.3 µM
[21] = second compound 0.01 µM, first compound 0.0316 µM
[22] = second compound 0.01 µM, first compound 0.1 µM
[23] = second compound 0.01 µM, first compound 0.316 µM
[24] = second compound 0.01 µM, first compound 1 µM
[25] = second compound 0.0316 µM, first compound 0.0316 µM
[26] = second compound 0.0316 µM, first compound 0.1 µM
[27] = second compound 0.0316 µM, first compound 0.316 µM
[28] = second compound 0.0316 µM, first compound 1 µM
[29] = second compound 0.1 µM, first compound 0.0316 µM
[30] = second compound 0.1 µM, first compound 0.1 µM
[31] = second compound 0.1 µM, first compound 0.316 µM
[32] = second compound 0.1 µM, first compound 1 µM
[33] = second compound 0.316 µM, first compound 0.0316 µM
[34] = second compound 0.316 µM, first compound 0.1 µM
[35] = second compound 0.316 µM, first compound 0.316 µM
[36] = second compound 0.316 µM, first compound 1 µM
[37] = second compound 1 µM, first compound 0.0316 µM
[38] = second compound 1 µM, first compound 0.1 µM
[39] = second compound 1 µM, first compound 0.316 µM
[40] = second compound 1 µM, first compound 1 µM
[41] = second compound 0.01 µM, first compound 3.16 µM
[42] = second compound 0.01 µM, first compound 10 µM
[43] = second compound 0.0316 µM, first compound 3.16 µM
[44] = second compound 0.0316 µM, first compound 10 µM
[45] = second compound 0.1 µM, first compound 3.16 µM
[46] = second compound 0.1 µM, first compound 10 µM
[47] = second compound 0.316 µM, first compound 3.16 µM
[48] = second compound 0.316 µM, first compound 10 µM
[49] = second compound 1 µM, first compound 3.16 µM
[50] = second compound 1 µM, first compound 10 µM

CC(=O)c1c(C)c2cnc(Nc3ccc(N4CCNCC4)cn3)nc2n(C2CCCC2)c1=O + CCN1CCN(Cc2ccc(Nc3ncc(F)c(-c4cc(F)c5nc(C)n(C(C)C)c5c4)n3)nc2)CC1
IC50 (second compound 0.01 µM): > 300 nM | IC50 (second compound 0.0316 µM): > 300 nM | IC50 (second compound 0.1 µM): > 300 nM | IC50 (second compound 0.316 µM): > 300 nM | IC50 (second compound 1 µM): > 300 nM | viability, T/C (second compound 0.01 µM, first compound 0.000949 µM): 79.2% | viability, T/C (second compound 0.01 µM, first compound 0.003 µM): 68.6% | viability, T/C [1]: 70.7% | viability, T/C [2]: 61.7% | viability, T/C [3]: 62% | viability, T/C [4]: 56.6% | viability, T/C (second compound 0.0316 µM, first compound 0.000949 µM): 49.9% | viability, T/C (second compound 0.0316 µM, first compound 0.003 µM): 57.3% | viability, T/C [5]: 53.7% | viability, T/C [6]: 53.7% | viability, T/C [7]: 56.4% | viability, T/C [8]: 59.8% | viability, T/C (second compound 0.1 µM, first compound 0.000949 µM): 53.5% | viability, T/C (second compound 0.1 µM, first compound 0.003 µM): 53.9% | viability, T/C [9]: 52.9% | viability, T/C [10]: 53.7% | viability, T/C [11]: 57.9% | viability, T/C [12]: 55.4% | viability, T/C (second compound 0.316 µM, first compound 0.000949 µM): 60% | viability, T/C (second compound 0.316 µM, first compound 0.003 µM): 56.8% | viability, T/C [13]: 63.1% | viability, T/C [14]: 64.9% | viability, T/C [15]: 65.5% | viability, T/C [16]: 60.9% | viability, T/C (second compound 1 µM, first compound 0.000949 µM): 58.1% | viability, T/C (second compound 1 µM, first compound 0.003 µM): 60.2% | viability, T/C [17]: 57.3% | viability, T/C [18]: 57.5% | viability, T/C [19]: 51.2% | viability, T/C [20]: 55.1%

CC(C)(C)c1cnc(CSc2cnc(NC(=O)C3CCNCC3)s2)o1 + CCN1CCN(Cc2ccc(Nc3ncc(F)c(-c4cc(F)c5nc(C)n(C(C)C)c5c4)n3)nc2)CC1
IC50 (second compound 0.01 µM): 175 nM | IC50 (second compound 0.0316 µM): 146 nM | IC50 (second compound 0.1 µM): 98.5 nM | IC50 (second compound 0.316 µM): 38.1 nM | IC50 (second compound 1 µM): < 9.49 nM | viability, T/C [1]: 75.9% | viability, T/C [2]: 103% | viability, T/C [3]: 113% | viability, T/C [4]: 7.99% | viability, T/C (second compound 0.01 µM, first compound 0.949 µM): 6.01% | viability, T/C (second compound 0.01 µM, first compound 3 µM): 7.44% | viability, T/C [5]: 63.5% | viability, T/C [6]: 71.5% | viability, T/C [7]: 94.4% | viability, T/C [8]: 4.86% | viability, T/C (second compound 0.0316 µM, first compound 0.949 µM): 4.92% | viability, T/C (second compound 0.0316 µM, first compound 3 µM): 7.51% | viability, T/C [9]: 69.1% | viability, T/C [10]: 73.4% | viability, T/C [11]: 51.5% | viability, T/C [12]: 3.51% | viability, T/C (second compound 0.1 µM, first compound 0.949 µM): 6% | viability, T/C (second compound 0.1 µM, first compound 3 µM): 7.79% | viability, T/C [13]: 55.9% | viability, T/C [14]: 54.3% | viability, T/C [15]: 30.5% | viability, T/C [16]: 4.21% | viability, T/C (second compound 0.316 µM, first compound 0.949 µM): 5.66% | viability, T/C (second compound 0.316 µM, first compound 3 µM): 7.81% | viability, T/C [17]: 44.7% | viability, T/C [18]: 36.5% | viability, T/C [19]: 22.7% | viability, T/C [20]: 4.97% | viability, T/C (second compound 1 µM, first compound 0.949 µM): 7.15% | viability, T/C (second compound 1 µM, first compound 3 µM): 8.41%

COc1c(OCCCN2CCOCC2)ccc2c3n(c(=NC(=O)c4cnc(N)nc4)nc12)CCN3 + CCN1CCN(Cc2ccc(Nc3ncc(F)c(-c4cc(F)c5nc(C)n(C(C)C)c5c4)n3)nc2)CC1
IC50 (second compound 0.01 µM): 94.5 nM | IC50 (second compound 0.0316 µM): 90.8 nM | IC50 (second compound 0.1 µM): 86.5 nM | IC50 (second compound 0.316 µM): 78.3 nM | IC50 (second compound 1 µM): 80.6 nM | viability, T/C (second compound 0.01 µM, first compound 0.00316 µM): 89.5% | viability, T/C (second compound 0.01 µM, first compound 0.01 µM): 99.3% | viability, T/C [21]: 140% | viability, T/C [22]: 47% | viability, T/C [23]: 13.3% | viability, T/C [24]: 8.39% | viability, T/C (second compound 0.0316 µM, first compound 0.00316 µM): 109% | viability, T/C (second compound 0.0316 µM, first compound 0.01 µM): 121% | viability, T/C [25]: 142% | viability, T/C [26]: 43.2% | viability, T/C [27]: 11% | viability, T/C [28]: 8.82% | viability, T/C (second compound 0.1 µM, first compound 0.00316 µM): 156% | viability, T/C (second compound 0.1 µM, first compound 0.01 µM): 161% | viability, T/C [29]: 140% | viability, T/C [30]: 37% | viability, T/C [31]: 12.8% | viability, T/C [32]: 9.54% | viability, T/C (second compound 0.316 µM, first compound 0.00316 µM): 174% | viability, T/C (second compound 0.316 µM, first compound 0.01 µM): 170% | viability, T/C [33]: 111% | viability, T/C [34]: 34.5% | viability, T/C [35]: 14.8% | viability, T/C [36]: 13.3% | viability, T/C (second compound 1 µM, first compound 0.00316 µM): 173% | viability, T/C (second compound 1 µM, first compound 0.01 µM): 171% | viability, T/C [37]: 104% | viability, T/C [38]: 40.4% | viability, T/C [39]: 25% | viability, T/C [40]: 28.6%

Cc1nc(NC(=O)N2CCCC2C(N)=O)sc1-c1ccnc(C(C)(C)C(F)(F)F)c1 (stereo not given) + CCN1CCN(Cc2ccc(Nc3ncc(F)c(-c4cc(F)c5nc(C)n(C(C)C)c5c4)n3)nc2)CC1
IC50 (second compound 0.01 µM): 1120 nM | IC50 (second compound 0.0316 µM): 1380 nM | IC50 (second compound 0.1 µM): 489 nM | IC50 (second compound 0.316 µM): 523 nM | IC50 (second compound 1 µM): 172 nM | viability, T/C [21]: 68.2% | viability, T/C [22]: 48.2% | viability, T/C [23]: 50.6% | viability, T/C [24]: 51.2% | viability, T/C [41]: 43.4% | viability, T/C [42]: 13.6% | viability, T/C [25]: 54.5% | viability, T/C [26]: 52.7% | viability, T/C [27]: 58.6% | viability, T/C [28]: 53.9% | viability, T/C [43]: 39.1% | viability, T/C [44]: 11.1% | viability, T/C [29]: 49% | viability, T/C [30]: 55.5% | viability, T/C [31]: 51.2% | viability, T/C [32]: 47.5% | viability, T/C [45]: 32.9% | viability, T/C [46]: 11.5% | viability, T/C [33]: 59.4% | viability, T/C [34]: 63.2% | viability, T/C [35]: 55.6% | viability, T/C [36]: 41.5% | viability, T/C [47]: 27.8% | viability, T/C [48]: 11.9% | viability, T/C [37]: 62% | viability, T/C [38]: 53.6% | viability, T/C [39]: 45.9% | viability, T/C [40]: 29.6% | viability, T/C [49]: 20.6% | viability, T/C [50]: 14.4%

Cn1nccc1Nc1nccc(-c2ccn(C(CO)c3ccc(Cl)c(F)c3)c(=O)c2)n1 (stereo not given) + CCN1CCN(Cc2ccc(Nc3ncc(F)c(-c4cc(F)c5nc(C)n(C(C)C)c5c4)n3)nc2)CC1
IC50 (second compound 0.01 µM): > 10000 nM | IC50 (second compound 0.0316 µM): > 10000 nM | IC50 (second compound 0.1 µM): > 10000 nM | IC50 (second compound 0.316 µM): > 10000 nM | IC50 (second compound 1 µM): > 10000 nM | viability, T/C [21]: 87.1% | viability, T/C [22]: 78.3% | viability, T/C [23]: 97.1% | viability, T/C [24]: 114% | viability, T/C [41]: 127% | viability, T/C [42]: 93.8% | viability, T/C [25]: 59.1% | viability, T/C [26]: 58% | viability, T/C [27]: 66.1% | viability, T/C [28]: 76.6% | viability, T/C [43]: 115% | viability, T/C [44]: 39.8% | viability, T/C [29]: 54.4% | viability, T/C [30]: 52.1% | viability, T/C [31]: 55.6% | viability, T/C [32]: 64.8% | viability, T/C [45]: 87.7% | viability, T/C [46]: 47.2% | viability, T/C [33]: 52.4% | viability, T/C [34]: 68.5% | viability, T/C [35]: 64.7% | viability, T/C [36]: 65.4% | viability, T/C [47]: 72.9% | viability, T/C [48]: 54.3% | viability, T/C [37]: 62.4% | viability, T/C [38]: 57.1% | viability, T/C [39]: 61.2% | viability, T/C [40]: 63.2% | viability, T/C [49]: 92% | viability, T/C [50]: 51.5%

Reference: PubChem BioAssay AID2060327 (Molecular Pharmacology Branch, DTP, NCI, 2025)
